Test results from patent US10441569B2, “Self-emulsifying formulations of DIM-related indoles” (BioResponse, L.L.C., priority 2015, dated 2019).
In brackets after ≈: the same amount, converted by molar mass. Where two headings read alike, the source gives them in different places. Each block holds one compound with its values, some of them ahead of it.

Experiments:
[1] = cited from earlier work; for log P: no own measurement; for Log P of 2nd API drug: table of exemplary 2nd API drugs
[2] = Particle size after dispersion and spontaneous emulsion formation in water (laser light scattering); format: physicochemical; settings: Malvern Mastersizer, DIM as supplied by BioResponse
Procedure: Each of the formulations were tested by dispersing approximately 1 gram of the candidate formulation in 200 mL of deionized water at approximately 37° C. with slow stirring of a magnetic spin bar in a 1 L beaker. Within five minutes of the addition, sufficient mixture was added to a Malvern Mastersizer dynamic laser light scattering instrument to satisfy the obscuration of the laser beams needed for measurement.
Some of the formulations were formulated with and without Soluplus and with and without phosphatidyl choline-rich isolates from lecithin. The formulations were tested by dispersing approximately 1 gram of the candidate formulation in 200 mL of deionized water at approximately 37° C. with slow stirring of a magnetic spin bar in a 1 L beaker. Within five minutes of the addition, sufficient mixture was added to a Malvern Mastersizer dynamic laser light scattering instrument to satisfy the obscuration of the laser beams needed for measurement.
The dispersions of Formulations R and T were tested for particle size by laser diffraction following dispersion and spontaneous emulsion formation in water. […] The particle size determined is expressed as diameter in microns (μ) in the following chart, and comparison is made to other nutritional and pharmaceutical formulations described herein: […]

[3] = Experimental log P of DIM (octanol / aqueous shake-flask, HPLC); format: physicochemical; settings: octanol / aqueous media (separate shake-flask solubilities); from octanol and aqueous shake-flask results; read-out: Experimental log P Determination
Procedure: (§1) In directly determining the solubility of DIM the shake-flask method for determination of maximum solubility in aqueous media was utilized. The solubility was determined as described by Lindenberg et al., 2004, Eur J Pharm Biopharm. 58(2):265-78. The drug was weighed in excess of its expected solubility in Uniprep® vials equipped with a 0.45-μm membrane filter, and 2 ml of Milli-Q water, 0.01N HCL (pH 2.0), or phosphate buffer (pH 7.4) (USP) was added into the vial. The vials were incubated at 37±0.5° C. while shaking on a “Polymax 1040” orbital shaker (Heidolph, Schwabach). The samples of the solutions were taken after 4 or 24 hours by pressing the Uniprep® plunger down, diluted as appropriate, and the concentration of DIM was analyzed by HPLC, as described below. The measurements were done in triplicate. The maximum concentration of DIM in aqueous media used in this study was 0.6 μg/ml. The solubility or stability was not influenced by pH and was similar in water, 0.01N HCl or PBS (pH 7.4).

[4] = Intra-individual comparison of DIM plasma levels, one adult subject; format: in vivo; settings: human, same adult subject, 300 mg oral
Procedure: Repeated single-use of 300 mg oral doses of DIM in different DIM formulations was conducted. Absorption studies using the same adult subject on separate test days were performed. This allowed comparison of DIM absorption and Plasma Pharmacokinetics through comparison of DIM plasma levels measured following administration of unformulated crystalline DIM, following administration of absorption-enhanced, microencapsulated DIM (BR-DIM), following administration of DIM SMEDDS Formulation “D” without Poloxamer 124, and following administration of DIM SMEDDS Formulation “G” with Poloxamer 124, to the human subject. The same oral administration and timed plasma sampling protocol was used on different study days, separated by at least 2 weeks. Plasma level results for each time point are presented in the following chart.

[5] = Solubility of DIM in individual excipients (incremental addition, microscopic observation); format: physicochemical
Procedure: The first step in this development process was the testing of a variety of excipients chosen as potentially active in solubilizing DIM. […] The method involved weighing of approximately 2 grams of each of the liquid excipients into a small vial. Subsequently, a small amount of DIM was added and the mixture was shaken.
The method involved weighing of approximately 2 grams of each of the liquid excipients into a small vial. Subsequently, a small amount of DIM was added and the mixture was shaken. […] Continued testing of acceptable oil solvents for, e.g., nutritional supplement, self-emulsifying formulations using DIM as a representative DIM-related indole active ingredient included testing of the following oils: […]

[6] = Single dose human oral bioavailability study (plasma DIM by LC-MS/MS); format: in vivo; settings: both sexes
Procedure: Study Design: Single Center, Single-Blind, Single Dose, Oral Bioavailability Study, with Subject Crossover.
In Part I of the Study, a treatment group was administered a 300 mg dose of DIM from BR-DIM or a 300 mg dose of DIM from crystalline DIM on the first study day, followed by crossover to the other DIM formulation on the second study day, at least 14 days following the first treatment. 3 subjects were given crystalline DIM, 4 subjects were given BR-DIM.
In Part II of the Study, five individuals, four of whom participated in Part I of the Study, were administered a 300 mg dose of DIM from DIM SMEDDS Formulation D. Testing of DIM SMEDDS formula D took place on one day with 5 subjects. The subjects were all healthy, adult volunteers, both male and female, not consuming DIM containing supplements and in a fasting state on study days. Volunteers agreed not to consume cruciferous vegetable for one week prior to study days. Study groups consisted of 3, 4, or 5 individuals.
A baseline blood specimen was collected. For Part I of the Study, subjects ingested matching, opaque gelatin capsules containing either crystalline DIM (300 mg) or BR-DIM providing 300 mg DIM. Then, the subjects provided 8 cc samples of blood was collected at Baseline, and 1 hr, 2 hr, 3 hr, 4 hr, and 6 hr after administration of each of the formulations. A standard small meal was given at 4 hrs.
A baseline blood specimen was collected. Subjects ingested opaque gelatin capsules containing SEDDS DIM formulation (in particular, Formulation D described above) providing 300 mg dissolved DIM. The DIM SMEDDS formulation was provided in 3 hard gelatin capsules each containing 100 mg of DIM. Subsequently, 8 cc samples of blood were obtained and 30 cc samples of urine will be obtained according to the following chart. Blood was collected at Baseline, and 1 hr, 2 hr, 3 hr, 4 hr, and 6 hr after administration of the drug. A standard small meal was given at 4 hrs.
Blood sample handling: Within 15 minutes, plasma was centrifuged and frozen, stored on dry ice, then stored at minus 80 until assayed.
Pharmacokinetic evaluation was performed for all subjects. Blood samples (˜8 ml for each) were collected at 0 (baseline), 1, 2, 3, 4, and 6 hours after the oral administration of the dose of DIM, BR-DIM, or DIM SMEDDS formulation (i.e., Formulation D described above). Within 15 minutes of the collection, the blood samples were centrifuged at 4° C., at 2000 g for 10 minutes, and plasma was collected immediately after centrifugation and transferred to the screw-cap polypropylene cryogenic tubes. The plasma samples were stored at −80° C. until analysis.
The concentrations of DIM in human plasma samples were determined by a validated high-performance liquid chromatography with tandem mass spectrometry (LC-MS/MS) method. Briefly, to 50 μl human plasma, 100 μl of 2% formic acid in methanol (containing 1 μg/mL internal standard zileuton) was added to precipitate proteins. The mixture was vortex-mixed for 1 minute, and centrifuged at 14,000 g at 4° C. for 10 minutes. The supernatant was collected and 10 μl was injected into the LC-MS/MS system. Chromatographic analysis was performed using a Waters model 2690 separation system (Milford, Mass., USA). The analytes were separated on a Waters X-Terra MS column (150 mm×2.1 mm i.d.) using a mobile phase consisting of methanol/0.45% formic acid (70:30, v/v), and isocratic flow at 0.2 mL/min. The analytes were monitored by a Waters Micromass triple quadrupole mass spectrometer (Milford, Mass., USA) using an electrospray probe in the positive ionization mode operating at a cone voltage of 23V for DIM and 13V for the internal standard zileuton. Samples were introduced into the ionization source through a heated nebulized probe (350° C.). The collision energy was set at 30 eV and 9 eV for DIM and zileuton, respectively. The transitions at 129.9>76.8 and 237.1>161.1 were monitored for DIM and zileuton, respectively. […]

[7] = Shake-flask determination of maximum solubility of DIM; format: physicochemical; settings: for solubility: 37 °C, thermodynamic from solid, read-out: maximal solubility
Procedure: as §1

[8] = healthy humans, single oral dose 300 mg DIM, averaged

Compound: Vitamin D
log P [1]: 7.5

Particle Size Diameter after Dispersion in Water (nm) [2]: 3,010^1^ nm
logP [3]: 3.58
AUC [4]: 17 ng·h/mL
Cmax [4]: 6.8 ng/mL
concentration at 0 h ([4]; time 0 hr, read-out: Plasma level of DIM): 0 ng/mL
concentration at 1 h ([4]; time 1 hr, read-out: Plasma level of DIM): 4.5 ng/mL
concentration at 2 h ([4]; time 2 hr, read-out: Plasma level of DIM): 6.8 ng/mL
concentration at 3 h ([4]; time 3 hr, read-out: Plasma level of DIM): 4.7 ng/mL
concentration at 4 h ([4]; time 4 hr, read-out: Plasma level of DIM): 2.6 ng/mL
DIM Solubility % ([5]; in Black Cumin oil): 2%
DIM Solubility ([5]; in Capryol 90 (Propylene glycol monocaprylate)): 7%
DIM Solubility ([5]; in Capryol PGMC (Propylene glycol monocaprylate)): 8%
DIM Solubility ([5]; in Crodasol HS-HP (monoesters and diesters of 12-hydroxystearic acid and macrogols)): 14%
DIM Solubility ([5]; in Gelucire 44/14 (Lauroyl polyoxyl-32 glycerides)): 19%
DIM Solubility ([5]; in Labrafac AC WL1349 (Medium-chain triglycerides)): 3%
DIM Solubility ([5]; in Labrafac PG (Propylene glycol di-caprylate)): 4.5%^
DIM Solubility ([5]; in Labrafil M1944CS (Oleoyl polyoxyl-6 glycerides)): 5%
DIM Solubility ([5]; in Labrasol ALF (Caprylocaproyl polyoxyl-8 glycerides)): 25%
DIM Solubility ([5]; in Lauroylglycol 90 (Propylene glycol monolaurate)): 3%
DIM Solubility ([5]; in Maisine 35-1 (Glyceryl monolinoleate)): 2%
DIM Solubility ([5]; in Peceol (Glycerol monooleate)): 2%
DIM Solubility ([5]; in Peppermint oil): 4%
DIM Solubility ([5]; in Plurol Oleique (Glycerol mono/di-oleate)): 5%
DIM Solubility ([5]; in Polysorbate 80): 12%
DIM Solubility ([5]; in Propylene glycol): 2%
DIM Solubility % ([5]; in Rosemary Oil): 6%
DIM Solubility ([5]; in Transcutol (Diethylene glycol monoethyl ether)): >25%
ability of oil to dissolve DIM ([5]; olive oil or sunflower oil): very low ability to dissolve DIM
AUC(0-inf) [6, 8]: 98.5 ng·h/mL
Cmax [6, 8]: 18.1 ng/mL
Tmax [6, 8]: 1.7 h
half-life [6, 8]: 2.2 h
concentration at 0 h ([6]; time 0 hour (baseline), 300 mg oral, read-out: averaged plasma level of DIM): 0 ng/mL
concentration at 1 h ([6]; time 1 hour, 300 mg oral, read-out: averaged plasma level of DIM): 17.8 ng/mL
concentration at 2 h ([6]; time 2 hour, 300 mg oral, read-out: averaged plasma level of DIM): 16.7 ng/mL
concentration at 3 h ([6]; time 3 hour, 300 mg oral, read-out: averaged plasma level of DIM): 10.6 ng/mL
concentration at 4 h ([6]; time 4 hour, 300 mg oral, read-out: averaged plasma level of DIM): 10 ng/mL
concentration at 6 h ([6]; time 6 hour, 300 mg oral, read-out: averaged plasma level of DIM): 5.8 ng/mL
AUC ([6]; time zero to infinity, 300 mg oral): 98.5 ng·h/mL
solubility ([7]; 0.01N HCl, simulated gastric fluid, aqueous acid environment of pH 2): 0.6 µg/mL (≈ 2.44 µM)
solubility ([7]; in water): 0.7 µg/mL (≈ 2.84 µM)
concentration of DIM in Octanol ([7]; Octanol, shake-flask method, HPLC): 2,300 μg/ml
maximum concentration of DIM in aqueous media ([7]; water, 0.01N HCl (pH 2.0) or phosphate buffer (pH 7.4), 37°C): 0.6 µg/mL
Compound: c1ccc2c(Cc3c[nH]c4ccccc34)c[nH]c2c1 [DIM, 3,3′-diindolylmethane]

Compound: CC1=C(/C=C/C(C)=C/C=C/C(C)=C\C(=O)O)C(C)(C)CCC1 [isotretinoin, 13-cis retinoic acid]
log P [1]: 6.83

Compound: COc1cc2ncnc(Nc3ccc(F)c(Cl)c3)c2cc1OCCCN1CCOCC1 [Gefitinib, N-(3-chloro-4-fluoro-phenyl)-7-methoxy-6-(3-morpholin-4-ylpropoxy)quinazolin-4-amine]
log P [1]: 3.72
Log P of 2nd API drug [1]: 3.72

Compound: CC(C)=CCC/C(C)=C/CC/C(C)=C/CC/C(C)=C/CC1=C(C)C(=O)c2ccccc2C1=O [menaquinone-4]
log P [1]: 10-12

Compound: CCCCCCCCCCCCCCCC(=O)OC/C=C(C)/C=C/C=C(C)/C=C/C1=C(C)CCCC1(C)C [Retinyl palmitate, Retinyl Palmitate]
log P [1]: 5.68

Compound: COc1cc(C)c(/C=C/C(C)=C/C=C/C(C)=C/C(=O)O)c(C)c1C [acitretin]
log P [1]: 5.73

Compound: CC(O)(CS(=O)(=O)c1ccc(F)cc1)C(=O)Nc1ccc(C#N)c(C(F)(F)F)c1 (centres unmarked) [Biculatamide, Bicalutamide]
log P [1]: 4.94

Compound: CNC(=O)c1cccc2cc(Oc3ccnc4cc(OCC5(N)CC5)c(OC)cc34)ccc12 [Lucitanib, 6-[7-[(1-aminocyclopropyl)methoxy]-6-methoxyquinolin-4-yl]oxy-N-methylnaphthalene-1-carboxamide]
log P [1]: 3.81
Log P of 2nd API drug [1]: 3.81
